Reference: ChEMBL document CHEMBL5518162, “Design, synthesis, and biological evaluation of 2-amino-6-methyl-phenol derivatives targeting lipid peroxidation with potent anti-ferroptotic activities” (Eur J Med Chem, 2024)
Values belong to the molecule of their own block, whether it stands above or below them. The source made the active and inactive calls. No cut-off for these calls is given here.

Assays:
[1] = system: HT-1080; test: Anti-ferroptotic activity against RSL3-induced ferroptosis in human HT-1080 cells assessed as inhibition of ferroptosis incubated for 24 hrs by CCK-8 assay; type: functional, cell-based; settings: HT-1080, 24 h
[2] = Antioxidant activity assessed as DPPH radical scavenging activity at 10 uM; type: functional
[3] = system: HT-1080; test: Suppression of RSL-3 induced lipid ROS generation in human HT-1080 cells assessed as decrease in STY-BODIPY oxidation at 100 nM by C11-BODIPY581/591 staining based confocal microscopy; type: functional, cell-based
[4] = system: HT-1080; test: Suppression of RSL-3 induced lipid ROS generation in human HT-1080 cells assessed as decrease in STY-BODIPY oxidation at 100 nM by C11-BODIPY581/591 staining based flow cytometry analysis; type: functional, cell-based
[5] = system: HT-1080; test: Suppression of RSL3-induced malondialdehyde adducts accumulation in human HT-1080 cells at 100 nM by lipid peroxidation (MDA) assay; type: functional, cell-based
[6] = system: HT-1080; test: Effect on TFRC level in RSL3-induced human HT-1080 cells by measuring mRNA level by qRT-PCT analysis; type: functional, cell-based
[7] = system: HT-1080; test: Effect on DMT1 level in RSL3-induced human HT-1080 cells by measuring mRNA level by qRT-PCT analysis; type: functional, cell-based
[8] = system: HT-1080; test: Effect on FTH1 level in RSL3-induced human HT-1080 cells by measuring mRNA level by qRT-PCT analysis; type: functional, cell-based
[9] = system: HT-1080; test: Effect on ACSL4 level in RSL3-induced human HT-1080 cells by measuring mRNA level by qRT-PCT analysis; type: functional, cell-based
[10] = system: HT-1080; test: Effect on GPX4 level in RSL3-induced human HT-1080 cells by measuring mRNA level by qRT-PCT analysis; type: functional, cell-based
[11] = system: HT-1080; test: Effect on SLC7A11 level in RSL3-induced human HT-1080 cells by measuring mRNA level by qRT-PCT analysis; type: functional, cell-based
[12] = system: HT-1080; test: Effect on TFRC level in unstimulated human HT-1080 cells by measuring mRNA level by qRT-PCT analysis; type: functional, cell-based
[13] = system: HT-1080; test: Effect on DMT1 level in unstimulated human HT-1080 cells by measuring mRNA level by qRT-PCT analysis; type: functional, cell-based
[14] = system: HT-1080; test: Effect on FTH1 level in unstimulated human HT-1080 cells by measuring mRNA level by qRT-PCT analysis; type: functional, cell-based
[15] = system: HT-1080; test: Effect on ACSL4 level in unstimulated human HT-1080 cells by measuring mRNA level by qRT-PCT analysis; type: functional, cell-based
[16] = system: HT-1080; test: Effect on GPX4 level in unstimulated human HT-1080 cells by measuring mRNA level by qRT-PCT analysis; type: functional, cell-based
[17] = system: HT-1080; test: Effect on SLC7A11 level in unstimulated human HT-1080 cells by measuring mRNA level by qRT-PCT analysis; type: functional, cell-based
[18] = system: HT-1080; test: Anti-ferroptotic activity against RSL3-induced ferroptosis in human HT-1080 cells assessed as […] incubated for 24 hrs by CCK-8 assay; type: functional, cell-based; settings: dose 0.1-1 µM
[19] = system: HT-1080; test: Anti-ferroptotic activity against erastin-induced ferroptosis in human HT-1080 cells assessed as […] incubated for 24 hrs by CCK-8 assay; type: functional, cell-based
[20] = system: HT-1080; test: Anti-ferroptotic activity against RSL3-induced ferroptosis in human HT-1080 cells assessed as preservation of cell viability above […] incubated for 24 hrs by CCK-8 assay; type: functional, cell-based
[21] = system: HT-1080; test: Anti-ferroptotic activity against erastin-induced ferroptosis in human HT-1080 cells assessed as preservation of cell viability above […] incubated for 24 hrs by CCK-8 assay; type: functional, cell-based
[22] = system: HT-1080; test: Anti-ferroptotic activity against RSL3-induced ferroptosis in human HT-1080 cells assessed as reduction in cell viability at 250 nM incubated for 24 hrs by CCK-8 assay; type: functional
[23] = system: HT-1080; test: Anti-ferroptotic activity against erastin-induced ferroptosis in human HT-1080 cells assessed as reduction in cell viability at 250 nM incubated for 24 hrs by CCK-8 assay; type: functional
[24] = system: HT-1080; test: Anti-ferroptotic activity against RSL3-induced ferroptosis in human HT-1080 cells assessed as reduction in cell death at 100 nM incubated for 24 hrs by CCK-8 assay; type: functional, cell-based
[25] = system: HT-1080; test: Anti-ferroptotic activity against erastin-induced ferroptosis in human HT-1080 cells assessed as reduction in cell death at 100 nM incubated for 24 hrs by CCK-8 assay; type: functional, cell-based
[26] = system: HT-1080; test: Anti-ferroptotic activity against ML210-induced ferroptosis in human HT-1080 cells assessed as reduction in cell death at 100 nM incubated for 24 hrs by CCK-8 assay; type: functional, cell-based
[27] = system: HT-1080; test: Anti-ferroptotic activity against FIN56-induced ferroptosis in human HT-1080 cells assessed as reduction in cell death at 100 nM incubated for 24 hrs by CCK-8 assay; type: functional, cell-based
[28] = system: HT-1080; test: Anti-ferroptotic activity against BSO-induced ferroptosis in human HT-1080 cells assessed as […] at 100 nM incubated for 24 hrs by CCK-8 assay; type: functional, cell-based
[29] = system: Huh-7; test: Anti-ferroptotic activity against RSL3-induced ferroptosis in human Huh-7 cells assessed as […] at 100 nM incubated for 24 hrs by CCK-8 assay; type: functional, cell-based
[30] = system: HeLa; test: Anti-ferroptotic activity against RSL3-induced ferroptosis in human HeLa cells assessed as […] at 100 nM incubated for 24 hrs by CCK-8 assay; type: functional, cell-based
[31] = system: HTR-8/SVneo; test: Anti-ferroptotic activity against RSL3-induced ferroptosis in human HTR-8/SVneo cells assessed as […] at 100 nM incubated for 24 hrs by CCK-8 assay; type: functional, cell-based
[32] = system: HepG2; test: Anti-ferroptotic activity against RSL3-induced ferroptosis in human HepG2 cells assessed as […] at 100 nM incubated for 24 hrs by CCK-8 assay; type: functional, cell-based
[33] = system: Mus musculus; test: (§1) Protection of kidney in ischemia-reperfusion-induced kidney injury C57BL/6Nj mouse model assessed as reduction of serum creatinine level at 10 mg/kg, ip pretreated for 1 hr followed by bilateral artery clamping for 45 mins and measured after 24 hrs; type: functional, organism-based
[34] = system: Mus musculus; test: Protection of kidney in ischemia-reperfusion-induced kidney injury C57BL/6Nj mouse model assessed as reduction of blood urea nitrogen level at 10 mg/kg, ip pretreated for 1 hr followed by bilateral artery clamping for 45 mins and measured after 24 hrs; type: functional, organism-based
[35] = system: Mus musculus; test: (§2) Protection of kidney in ischemia-reperfusion-induced kidney injury C57BL/6Nj mouse model assessed as focal eosinophilic degeneration of renal tubular epithelial cells in the extra medullary zone at 10 mg/kg, ip pretreated for 1 hr followed by bilateral artery clamping for 45 mins and measured after 24 hrs by hematoxylin and eosin staining based analysis; type: functional, organism-based; settings: time 1545.0 min
[36] = system: Mus musculus; test: as §2, with “necrosis” for “eosinophilic degeneration”, “and nuclear fixation” for “in the extra medullary zone”; type: functional, organism-based; settings: time 1545.0 min
[37] = system: Mus musculus; test: as §1, with “prevention” for “reduction”, “[…] by measuring 4-HNE” for “serum creatinine level”, “hrs by immunohistochemistry staining based analysis” for “hrs”; type: functional, organism-based; settings: time 1545.0 min

SMILES: Cc1cccc(N)c1OCc1ccccc1
- EC50 [1]: > 10000 nM
- Activity [2]: Active

SMILES: Nc1cccc(C(=O)O)c1O
- EC50 [1]: > 10000 nM
- Activity [2]: Active

SMILES: CCOC(=O)c1ccc(NC2CCCCC2)c(N)c1
- EC50 [1]: 138 nM
- Activity [3]: Active
- Activity [4]: Active
- Activity [2]: Active

SMILES: Cc1cccc(NCc2cccc([N+](=O)[O-])c2)c1O
- EC50 [1]: 149 nM
- Activity [2]: Active

SMILES: CCCCNc1cccc(C)c1O
- EC50 [1]: 74.7 nM
- Activity [3]: Active
- Activity [4]: Active
- Activity [5]: Active
- Activity [6]: inactive
- Activity [7]: inactive
- Activity [8]: inactive
- Activity [9]: inactive
- Activity [10]: inactive
- Activity [11]: inactive
- Activity [12]: inactive
- Activity [13]: inactive
- Activity [14]: inactive
- Activity [15]: inactive
- Activity [16]: inactive
- Activity [17]: inactive
- Activity [2]: Active

SMILES: Cc1cccc(N)c1O
- EC50 [1]: 207 nM
- Activity [18]: Dose-Dependent Effect
- Activity [19]: Dose-Dependent Effect
- EC50 ([19]; HT-1080, 24 h): 132 nM
- Activity [20]: Active
- Activity [21]: Active
- Activity [2]: Active
- Activity [22]: 100%
- Activity [23]: 100%

SMILES: CC(=O)c1cccc(N)c1O
- EC50 [1]: > 10000 nM
- Activity [2]: Active

SMILES: Cc1cccc([N+](=O)[O-])c1O
- EC50 [1]: > 10000 nM
- Activity [2]: Active

SMILES: CCNc1cccc(C)c1O
- EC50 [1]: 60.4 nM
- Activity [2]: Active

SMILES: COc1c(C)cccc1N
- EC50 [1]: > 10000 nM
- Activity [2]: Active

Now from value to molecule, other results behind:

- EC50 [1]: 164 nM
SMILES: COC(=O)c1ccc(CNc2cccc(C)c2O)cc1
- Activity [2]: Active

- EC50 [1]: 131 nM
SMILES: Cc1cccc(NCc2ccc(Cl)cc2)c1O
- Activity [3]: Active
- Activity [4]: Active
- Activity [5]: Active
- Activity [6]: inactive
- Activity [7]: inactive
- Activity [8]: inactive
- Activity [9]: inactive
- Activity [10]: inactive
- Activity [11]: inactive
- Activity [12]: inactive
- Activity [13]: inactive
- Activity [14]: inactive
- Activity [15]: inactive
- Activity [16]: inactive
- Activity [17]: inactive
- Activity [2]: Active

- EC50 [1]: 78.9 nM
SMILES: COc1ccc(CNc2cccc(C)c2O)cc1
- Activity [2]: Active

- EC50 [1]: 181 nM
SMILES: Cc1cccc(NCc2ccccc2)c1O
- Activity [2]: Active

- EC50 [1]: 25.5 nM
SMILES: Cc1ccc(CNc2cccc(C)c2O)cc1
- Activity [24]: Active
- Activity [25]: Active
- Activity [26]: Active
- Activity [27]: Active
- Activity [28]: Active
- Activity [29]: Active
- Activity [30]: Active
- Activity [31]: Active
- Activity [32]: Active
- Activity [3]: Active
- Activity [4]: Active
- Activity [5]: Active
- Activity [6]: inactive
- Activity [7]: inactive
- Activity [8]: inactive
- Activity [9]: inactive
- Activity [10]: inactive
- Activity [11]: inactive
- Activity [12]: inactive
- Activity [13]: inactive
- Activity [14]: inactive
- Activity [15]: inactive
- Activity [16]: inactive
- Activity [17]: inactive
- Activity [2]: Active
- Activity [33]: Active
- Activity [34]: Active
- Activity [35]: Active
- Activity [36]: Active
- Activity [37]: Active

- EC50 [1]: 158 nM
SMILES: Cc1cccc(NCc2cccc(C#N)c2)c1O
- Activity [2]: Active
